# Data: USRE40086E1, “Method for treating bacterial infection with novel 7-substituted-9-substituted amino 6-demethyl-6-deoxytetracyclines” (Wyeth Holdings Corporation, priority 1991, dated 2008)
# Columns and labels:
# [1] = tested on: S. aureus SMITH (sens); test: In vivo antibacterial evaluation, acute lethal infection in mice; settings: Intraveneous
# [2] = tested on: S. aureus UBMS 88-5 (tetM); test: MIC, agar dilution; assay type: cell-based; settings: S. aureus UBMS 88-5 TetM; Table IA; unit assumed
# [3] = tested on: E. coli MC4100 TetB; test: MIC, agar dilution (Table IA); assay type: cell-based; settings: unit assumed
# [4] = tested on: E. faecalis ATCC 29212; test: MIC, agar dilution; assay type: cell-based; settings: E. faecalis ATCC 29212; Table IA; unit assumed
# [5] = tested on: E. coli #311 (MP); test: MIC, agar dilution (Table IA); assay type: cell-based; settings: unit assumed
# [6] = tested on: S. aureus ROSE (MP); test: MIC, agar dilution (Table IA); assay type: cell-based; settings: unit assumed
# [7] = tested on: E. coli UBMS 88-1 (tetB); test: MIC, agar dilution; assay type: cell-based; settings: E. coli UBMS 88-1 TetB; Table IA; unit assumed
# [8] = tested on: S. aureus Smith (Sensitive); test: MIC, agar dilution; assay type: cell-based; settings: S. aureus SMITH (MP); Table IA; unit assumed
# [9] = tested on: S. aureus SMITH (sens); test: In vivo antibacterial evaluation, acute lethal infection in mice; settings: Oral
# Source text: In Vivo Antibacterial Evaluation (Table VII)
# [10] = tested on: E. faecalis 12201; test: MIC, agar dilution; assay type: cell-based; settings: Enterococcus 12201; Table IA; unit assumed
# [11] = tested on: E. coli UBMS 90-5; test: MIC, agar dilution (Table IA); assay type: cell-based; settings: unit assumed
# [12] = tested on: S. aureus UBMS 90-1 (tetM); test: MIC, agar dilution; assay type: cell-based; settings: S. aureus UBMS 90-1 TetM; Table IA; unit assumed
# [13] = tested on: S. aureus UBMS 88-7 (tetK); test: MIC, agar dilution; assay type: cell-based; settings: S. aureus UBMS 88-7 TetK; Table IA; unit assumed
# [14] = tested on: E. coli UBMS 90-4 (tetM); test: MIC, agar dilution; assay type: cell-based; settings: E. coli UBMS 90-4 TetM; Table IA; unit assumed
# [15] = tested on: S. mariescens FDOR 8733; test: MIC, agar dilution (Table IA); assay type: cell-based; settings: unit assumed
# [16] = tested on: S. aureus ATCC 29213 (Sensitive); test: MIC, agar dilution; assay type: cell-based; settings: S. aureus ATCC 29213; Table IA; unit assumed
# [17] = tested on: E. coli J3272 TetD; test: MIC, agar dilution (Table IA); assay type: cell-based; settings: unit assumed
# [18] = tested on: E. coli ATCC 25922; test: MIC, agar dilution; assay type: cell-based; settings: E. coli ATCC 25922; Table IA; unit assumed
# [19] = tested on: E. coli J2175; test: MIC, agar dilution (Table IA); assay type: cell-based; settings: unit assumed
# [20] = tested on: S. aureus IVES 2943 (meth. resistant); test: MIC, agar dilution; assay type: cell-based; settings: S. aureus IVES 2943; Table IA; unit assumed
# [21] = tested on: S. haemolyticus AVAH 88-3; test: MIC, agar dilution; assay type: cell-based; settings: S. hemolyticus AVHAH 88-3; Table IA; unit assumed
# [22] = tested on: E. coli J3272 Tet sens.; test: MIC, agar dilution (Table IA); assay type: cell-based; settings: unit assumed
# [23] = tested on: Ps. acruginosa ATCC 27853; test: MIC, agar dilution (Table IA); assay type: cell-based; settings: unit assumed
# [24] = tested on: S. aureus UBMS 90-3 (Sensitive); test: MIC, agar dilution; assay type: cell-based; settings: S. aureus UBMS 90-3; Table IA; unit assumed
# [25] = tested on: TetM S30 extract, derivative of E. coli MRE600 containing the tetM determinant; test: E. coli in vitro transcription and protein translation, 35S-methionine incorporation (Table VIII)
# [26] = tested on: E. coli UBMS 89-2 (Sensitive); test: MIC, agar dilution; assay type: cell-based; settings: E. coli UBMS 89-2 Tet Sens.; Table IA; unit assumed
# [27] = tested on: S. aureus IVES 1983 (meth. resistant); test: MIC, agar dilution; assay type: cell-based; settings: S. aureus IVES 1983; Table IA; unit assumed
# [28] = tested on: S. aureus NEMC 8769/89-4; test: MIC, agar dilution (Table IA); assay type: cell-based; settings: unit assumed
# [29] = tested on: E. coli BAJ9003; test: MIC, agar dilution (Table IA); assay type: cell-based; settings: unit assumed
# [30] = tested on: S. aureus UBMS 90-2 (tetM); test: MIC, agar dilution; assay type: cell-based; settings: S. aureus UBMS 90-2 TetM; Table IA; unit assumed
# [31] = tested on: E. coli J3272 TetC; test: MIC, agar dilution (Table IA); assay type: cell-based; settings: unit assumed
# [32] = tested on: Wild Type S30 extract, E. coli strain MRE600 (tetracycline sensitive); test: E. coli in vitro transcription and protein translation, 35S-methionine incorporation (Table VIII)
# [33] = tested on: E. coli UBMS 89-1 (tetM); test: MIC, agar dilution; assay type: cell-based; settings: E. coli UBMS 89-1 TetM; Table IA; unit assumed
# [34] = tested on: S. aureus UBMS 88-4 (Sensitive); test: MIC, agar dilution; assay type: cell-based; settings: S. aureus UBMS 88-4; Table IA; unit assumed
# [35] = tested on: E. coli PRP1 TetA; test: MIC, agar dilution (Table IA); assay type: cell-based; settings: unit assumed
# [36] = tested on: X. maltophilia NEMC 87210; test: MIC, agar dilution (Table IA); assay type: cell-based; settings: unit assumed
SMILES,ED50 [1],Antibacterial activity (MIC) [2],Antibacterial activity (MIC) [3],Antibacterial activity (MIC) [4],Antibacterial activity (MIC) [5],Antibacterial activity (MIC) [6],Antibacterial activity (MIC) [7],Antibacterial activity (MIC) [8],ED50 [9],Antibacterial activity (MIC) [10],Antibacterial activity (MIC) [11],Antibacterial activity (MIC) [12],Antibacterial activity (MIC) [13],Antibacterial activity (MIC) [14],Antibacterial activity (MIC) [15],Antibacterial activity (MIC) [16],Antibacterial activity (MIC) [17],Antibacterial activity (MIC) [18],Antibacterial activity (MIC) [19],Antibacterial activity (MIC) [20],further results
CC(C(=O)Nc1cc(N(C)C)c2c(c1O)C(=O)C1=C(O)[C@]3(O)C(=O)C(C(N)=O)=C(O)[C@@H](N(C)C)C3CC1C2)N(C)C.Cl.Cl (some centres unmarked) [XX],0.5 to 1 mg/kg,0.25 µg/mL,1 µg/mL,0.12 µg/mL,0.5 µg/mL,1 µg/mL,0.5 µg/mL,0.25 µg/mL,8 to 16 mg/kg,0.12 µg/mL,0.5 µg/mL,0.25 µg/mL,1 µg/mL,0.5 µg/mL,4 µg/mL,0.25 µg/mL,0.25 µg/mL,0.5 µg/mL,0.5 µg/mL,1 µg/mL,Antibacterial activity (MIC) [21]: 0.5 µg/mL; Antibacterial activity (MIC) [22]: 0.5 µg/mL; Antibacterial activity (MIC) [23]: 32 µg/mL; Antibacterial activity (MIC) [24]: 0.25 µg/mL; % INHIBITION TetM S30 ([25]; 0.06 mg/ml): 78%; % INHIBITION TetM S30 ([25]; 0.2 mg/ml): 89%; % INHIBITION TetM S30 ([25]; 1.0 mg/ml): 97%; Antibacterial activity (MIC) [26]: 0.5 µg/mL; Antibacterial activity (MIC) [27]: 1 µg/mL; Antibacterial activity (MIC) [28]: 0.12 µg/mL; Antibacterial activity (MIC) [29]: 0.06 µg/mL; Antibacterial activity (MIC) [30]: 0.25 µg/mL; Antibacterial activity (MIC) [31]: 1 µg/mL; % INHIBITION Wild Type S30 ([32]; 0.06 mg/ml): 85%; % INHIBITION Wild Type S30 ([32]; 0.2 mg/ml): 96%; % INHIBITION Wild Type S30 ([32]; 1.0 mg/ml): 98%; Antibacterial activity (MIC) [33]: 0.12 µg/mL; Antibacterial activity (MIC) [34]: 0.25 µg/mL; Antibacterial activity (MIC) [35]: 1 µg/mL; Antibacterial activity (MIC) [36]: 0.5 µg/mL
"CC(C)CNCC(=O)Nc1cc(N(C)C)c2c(c1O)C(=O)C1=C(O)C3(O)C(=O)C(C(N)=O)=C(O)C(N(C)C)C3CC1C2.Cl.Cl (stereo not drawn) [TT, [4S-(4alpha,12aalpha)]-4,7-Bis(dimethylamino)-1,4,4a,5,5a,6,11,12a-octahydro-3,10,12,12a-tetrahydroxy-9-[[[(2-methylpropyl)amino]acetyl]amino)-1,11-dioxo-2-naphthacenecarboxamide dihydrochloride]",1 to 2 mg/kg,0.25 µg/mL,0.5 µg/mL,0.25 µg/mL,0.5 µg/mL,2 µg/mL,0.5 µg/mL,0.12 µg/mL,8 to 16 mg/kg,0.25 µg/mL,0.5 µg/mL,0.25 µg/mL,2 µg/mL,0.5 µg/mL,4 µg/mL,0.25 µg/mL,0.12 µg/mL,0.5 µg/mL,0.5 µg/mL,2 µg/mL,Antibacterial activity (MIC) [21]: 0.5 µg/mL; Antibacterial activity (MIC) [22]: 0.5 µg/mL; Antibacterial activity (MIC) [23]: 16 µg/mL; Antibacterial activity (MIC) [24]: 0.12 µg/mL; Antibacterial activity (MIC) [26]: 0.5 µg/mL; Antibacterial activity (MIC) [27]: 2 µg/mL; Antibacterial activity (MIC) [28]: 0.03 µg/mL; Antibacterial activity (MIC) [29]: 0.06 µg/mL; Antibacterial activity (MIC) [30]: 0.25 µg/mL; Antibacterial activity (MIC) [31]: 0.5 µg/mL; Antibacterial activity (MIC) [33]: 0.25 µg/mL; Antibacterial activity (MIC) [34]: 0.25 µg/mL; Antibacterial activity (MIC) [35]: 2 µg/mL; Antibacterial activity (MIC) [36]: 0.5 µg/mL
